The text below walks through data of US20250099622A1, “COMPOSITIONS AND METHODS FOR EXPRESSING THERAPEUTICS” (priority 2022, published 2025).

For this assay, the system named is HEK293 cells. Nature of the assay: CNP-Fc ELISA of supernatant of AAV-transduced HEK293 cells. The format is cell-based, Human. As for the experimental part:
C-type natriuretic peptide (CNP) has two isoforms, CNP-22 and CNP-53. Example 2 illustrates that CNP-36 fused with Fe increased the half-life of the CNP and also facilitated in purification and ELISA detection when compared to native (unfused) CNP. Transduction and CNP-Fc expression experiments were performed with three AAV vectors (AMI061, AMI087 and AMI0488). FIG. 1A is the pictorial depiction of the three vectors. FIGS. 1B-F illustrate additional vectors that can encode the CNP or the CNP fusion protein. Enzyme-linked immunoassay (ELISA) was developed for quantifying CNP-Fc fusion proteins in cell culture supernatants. The ELISA assay was used to quantify CNP-Fc expressed in HEK293 cells, human chondrocytes (HCH) cells, and human skeletal muscle cells (hSkMC) upon transduction with one of the three AAV constructs described herein.
Buffer and substrate. Coating buffer: 3.7 g sodium bicarbonate, 0.64 g sodium carbonate in 1 L of Milli Q water, pH 9.6. Stored at RT; Blocking buffer: Commercial Casein blocking buffer in PBS+ added 0.1% Tween20. Stored at 4° C.; Standard diluent: same as blocking buffer; Wash buffer: 1×PBS with 0.1% tween 20 (30 days expiry from date of manufacture); Coating Antibody (Ab): Human CNP Antibody (monoclonal), coating concentration was 2 μg/mL; Detection Ab: Goat pAb anti-human Fc. Diluted up to 1:20,000 final dilution in well. Stored at 4° C.; HRP: Streptavidin-HRP stock of 1 mg/mL, diluted up to 1:10,000. Stored at 4° C.; Substrate: TMB. Stored at 4° C.; and Stop solution: 2 N HCl. Stored at ambient temperature.
• 1. Coat 96-well plate with 2 μg/mL anti-CNP antibody final concentration per well in the coating buffer with a 50 μL volume and cover the plate with sealing cover. Put the plate at 4° C. overnight. • 2. Next day, remove the plate, wash thrice with wash buffer and tap the plate on the paper towel to remove excess solution. • 3. Add 300 μL of blocking buffer to each well using multichannel pipette. […] Add 50 μL stop solution and read plate at 450 nm with 600 as reference within 15 min. […]
On the technique in general: An ELISA detects its analyte on a solid surface through an enzyme-linked reagent.

On to “AMI088: purified fusion protein Fc1-(G4S)4-CNP36 (IgG1 Fc), SEQ ID NO: 133”, for which the “Concentration” value (CNP-Fc in HEK293 supernatant 5 days after transduction with 100,000 MOI of AAV2 N54 vector) turned out to be 75 µg/mL. Moreover, the “CNP-Fc expression compared to other CNP constructs” value (HEK293 supernatant, 100,000 MOI, 5 days) is reported as “highest expression”.
